Laboratory results: article PMC7725506, “Functional Diversification of SRSF Protein Kinase to Control Ubiquitin-Dependent Neurodevelopmental Signaling” (Developmental Cell, 2020)

Key:
SRPK1 = molecular target: T1, SRPK1 (Mus musculus, UniProt O70551); assay: SRPK1 immunoprecipitation kinase assay from inhibitor-treated mESCs with RNF12 as substrate; type: cell-based; settings: mESCs pre-treated with 10 μM for 4 h
T1 construct: endogenous in cells; host or cells: mESCs (CCE line)
Experimental: (§1) SRSF phosphorylation, SRPK1, SRPK2, and ERK1/2 levels were determined by immunoblotting. Expected positions of SRSFs that are not detected are shown in gray. Quantification of SRSF phosphorylation (Right). Data represented as mean ± SEM (n = 4). […] Neuro 2a is a control for exon 16b exclusion in differentiated cells (Bottom). Data represented as mean ± SEM (n = 3). […] Exon 16 inclusion: (^∗∗∗∗) p < 0.0001, Exon 16b inclusion: (^∗) p = 0.0164, p = 0.0485, and p = 0.0489 (left to right). Ratio exon 16b/16: (^∗∗∗∗) p < 0.0001, (^∗∗∗) p = 0.0003. (C) SRPK substrates predicted using ScanProsite and grouped according to UniProt functions. (D) RNF12 phosphorylation sites detected by mass-spectrometry. LZL, leucine-zipper like; NLS, nuclear localization signal; NES, nuclear export signal; RING, RING E3 ubiquitin ligase catalytic domain. (E) CMGC family kinase copy numbers in mESCs determined by quantitative proteomics and represented using Kinoviewer. (F) CMGC kinase (200 mU) phosphorylation of the RNF12 SR-motif in vitro was determined by immunoblotting for RNF12 phospho-Ser214 and total RNF12. […] Normalized RNF12 Ser214 phosphorylation is shown below. Data represented as mean ± SEM (n = 3). […] RNF12 SR-motif phosphorylation was analyzed by immunoblotting for RNF12 phospho-Ser214 and RNF12. SRPK1 and SRPK2 levels are shown as a loading control, Related to Figure S1; Tables S1 and S2. […]

[1] = tested on: Foxp1 exon 16-16b alternative splicing switch; assay: Foxp1 exon 16-16b incorporation in mESCs by quantitative RT-PCR; type: cell-based, mouse; settings: 1 μM, 8 h
Experimental: SRSF phosphorylation, SRPK1, SRPK2, and ERK1/2 levels were determined by immunoblotting. Expected positions of SRSFs that are not detected are shown in gray. Quantification of SRSF phosphorylation (Right). Data represented as mean ± SEM (n = 4). […] Neuro 2a is a control for exon 16b exclusion in differentiated cells (Bottom). Data represented as mean ± SEM (n = 3). […] Exon 16 inclusion: (^∗∗∗∗) p < 0.0001, Exon 16b inclusion: (^∗) p = 0.0164, p = 0.0485, and p = 0.0489 (left to right). Ratio exon 16b/16: (^∗∗∗∗) p < 0.0001, (^∗∗∗) p = 0.0003. (C) SRPK substrates predicted using ScanProsite and grouped according to UniProt functions. (D) RNF12 phosphorylation sites detected by mass-spectrometry. LZL, leucine-zipper like; NLS, nuclear localization signal; NES, nuclear export signal; RING, RING E3 ubiquitin ligase catalytic domain. (E) CMGC family kinase copy numbers in mESCs determined by quantitative proteomics and represented using Kinoviewer. (F) CMGC kinase (200 mU) phosphorylation of the RNF12 SR-motif in vitro was determined by immunoblotting for RNF12 phospho-Ser214 and total RNF12. […] Normalized RNF12 Ser214 phosphorylation is shown below. Data represented as mean ± SEM (n = 3). […] RNF12 SR-motif phosphorylation was analyzed by immunoblotting for RNF12 phospho-Ser214 and RNF12. SRPK1 and SRPK2 levels are shown as a loading control, Related to Figure S1; Tables S1 and S2.
Total RNA extraction and reverse transcription was performed as described. Quantitative PCR reactions using SsoFast EvaGreen Supermix (Bio-Rad) were performed in a CFX384 real time PCR system (Bio-Rad). Relative RNA expression was calculated through the ΔΔCt method and normalised to Gapdh expression. Data was analysed in Excel (Microsoft) and statistical analysis performed in GraphPad Prism v7.0c software (GraphPad Software Inc.).

[2] = tested on: Ser-Arg rich splicing factors (SRSF); assay: SRSF phosphorylation in mESCs, immunoblotting with phosphoepitope SR proteins antibody; type: cell-based, mouse; settings: 10 μM, 4 h
Experimental: SRSF phosphorylation, SRPK1, SRPK2, and ERK1/2 levels were determined by immunoblotting. […] Quantification of SRSF phosphorylation (Right). Data represented as mean ± SEM (n = 4). […] Data represented as mean ± SEM (n = 3). One-way ANOVA followed by Tukey’s multiple comparisons test; confidence level 95%.
All compounds were diluted in DMSO and mESCs treated with 10 μM inhibitor for 4 h prior lysis unless indicated otherwise.
SDS-PAGE electrophoresis and immunoblotting was performed using standard methods. Cells were lysed in lysis buffer (20 mM Tris [pH 7.4], 150 mM NaCl, 1 mM EDTA, 1% NP-40 [v/v], 0.5% sodium deoxycholate [w/v], 10 mM β-glycerophosphate, 10 mM sodium pyrophosphate, 1 mM NaF, 2 mM Na3VO4, and Roche Complete Protease Inhibitor Cocktail Tablets). Phospho-specific antibodies were used at 1 μg/ml with 10 μg/ml of the corresponding non-phosphopeptide. After secondary antibody incubation, membranes were subjected to chemiluminescence detection with Immobilon Western Chemiluminescent HRP Substrate (Millipore) using a Gel-Doc XR+ System (Bio-Rad) or Infrared detection using a LI-COR Odyssey Clx system.

SRPK2 [3] = molecular target: T2, SRPK2 (Mus musculus, UniProt O54781); assay: SRPK2 immunoprecipitation kinase assay from inhibitor-treated mESCs with RNF12 as substrate; type: cell-based; settings: mESCs pre-treated with 10 μM for 4 h
T2 construct: endogenous in cells; host or cells: mESCs (CCE line)
Experimental: as §1

SRPK2 [4] = molecular target: SRPK2 (Homo sapiens, UniProt P78362); assay: Inhibition of RNF12 phosphorylation in vitro by SRPK2 (phospho-Ser214 immunoblot, dose-response); type: biochemical; settings: only this inhibitor of SRPIN340, SPHINX31, SRPKIN-1
Experimental: Cells were lysed, and 1.5 mg of protein immunoprecipitated with 2 μg of SRPK1 or SRPK2 antibodies (BD Biosciences). Immunoprecipitates were then washed with lysis buffer supplemented with 500 mM NaCl and half of the sample was resuspended in loading buffer. The remainder was subjected to in vitro phosphorylation assay containing 0.5 μg RNF12 and 2 mM ATP in kinase buffer (50 mM Tris-HCl [pH 7.5], 0.1 mM EGTA, 10 mM MgCl2, 2 mM DTT) and incubated at 30°C for 30 min. […] For radioactive in vitro kinase assays, reactions were supplemented with 1 μCi γ-^32P ATP. Reactions were incubated at 30°C for 30 min in presence or absence of inhibitor as indicated and samples subjected to polyacrylamide electrophoresis and immunoblot or Coomassie blue staining and signal detected via ECL, infrared detection or autoradiography.
Supplemental Figure Legends
(Related to Figure 1). (A) Wild-type (WT) mESCs were analysed for protein copy number by absolute quantitative proteomics. […]
Data are represented as mean ± S.E.M. (n=3). […] ND = not detected. (B) Inhibition of RNF12 phosphorylation in vitro by SRPK1 and SRPK2 in the presence of varying concentrations of the indicated SRPK inhibitors was determined by immunoblotting for RNF12 phospho-Ser214 (Left). […] Immunoblots were quantified to generate SRPK inhibitor dose-response curves for inhibition of RNF12 phosphorylation by SRPK1 and SRPK2 in vitro (Right). […]

Sequence of SRPK2 (Homo sapiens, UniProt P78362) (P78362 1-699 isoform P78362-2): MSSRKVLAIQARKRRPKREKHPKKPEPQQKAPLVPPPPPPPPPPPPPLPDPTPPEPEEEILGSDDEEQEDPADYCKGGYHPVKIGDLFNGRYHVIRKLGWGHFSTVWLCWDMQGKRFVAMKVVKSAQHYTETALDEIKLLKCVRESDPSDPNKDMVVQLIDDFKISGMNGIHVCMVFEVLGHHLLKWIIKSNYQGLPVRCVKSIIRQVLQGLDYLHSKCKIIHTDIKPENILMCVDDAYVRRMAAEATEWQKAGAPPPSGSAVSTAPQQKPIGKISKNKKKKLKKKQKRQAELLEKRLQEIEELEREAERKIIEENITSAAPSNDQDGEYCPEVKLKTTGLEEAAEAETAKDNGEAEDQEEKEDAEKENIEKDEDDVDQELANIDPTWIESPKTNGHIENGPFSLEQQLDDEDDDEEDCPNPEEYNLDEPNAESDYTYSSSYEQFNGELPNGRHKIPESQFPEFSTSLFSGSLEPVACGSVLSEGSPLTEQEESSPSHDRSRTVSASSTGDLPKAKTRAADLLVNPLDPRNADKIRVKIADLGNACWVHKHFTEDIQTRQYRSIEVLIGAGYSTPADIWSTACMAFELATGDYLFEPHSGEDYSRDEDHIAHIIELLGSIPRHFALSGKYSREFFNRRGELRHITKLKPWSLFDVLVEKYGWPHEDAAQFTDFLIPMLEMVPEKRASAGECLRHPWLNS
T2 sequence (O54781 whole entry): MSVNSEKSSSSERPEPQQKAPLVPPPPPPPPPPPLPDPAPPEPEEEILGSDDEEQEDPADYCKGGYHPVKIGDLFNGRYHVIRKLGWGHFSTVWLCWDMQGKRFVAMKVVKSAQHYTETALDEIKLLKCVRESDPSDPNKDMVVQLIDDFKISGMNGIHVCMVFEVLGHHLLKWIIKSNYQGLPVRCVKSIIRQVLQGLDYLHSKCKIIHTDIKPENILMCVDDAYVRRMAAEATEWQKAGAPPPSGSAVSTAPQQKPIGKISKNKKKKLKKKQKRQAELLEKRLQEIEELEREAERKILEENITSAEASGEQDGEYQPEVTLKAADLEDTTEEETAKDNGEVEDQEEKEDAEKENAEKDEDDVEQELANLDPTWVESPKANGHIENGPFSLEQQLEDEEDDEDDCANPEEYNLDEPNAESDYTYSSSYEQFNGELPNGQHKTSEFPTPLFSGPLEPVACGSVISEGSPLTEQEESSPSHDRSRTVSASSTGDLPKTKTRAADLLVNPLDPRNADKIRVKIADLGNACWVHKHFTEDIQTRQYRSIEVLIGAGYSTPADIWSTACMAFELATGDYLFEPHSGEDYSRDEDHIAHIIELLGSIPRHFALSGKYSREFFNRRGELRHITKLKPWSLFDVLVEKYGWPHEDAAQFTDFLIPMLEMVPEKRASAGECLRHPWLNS
T1 sequence (O70551 whole entry): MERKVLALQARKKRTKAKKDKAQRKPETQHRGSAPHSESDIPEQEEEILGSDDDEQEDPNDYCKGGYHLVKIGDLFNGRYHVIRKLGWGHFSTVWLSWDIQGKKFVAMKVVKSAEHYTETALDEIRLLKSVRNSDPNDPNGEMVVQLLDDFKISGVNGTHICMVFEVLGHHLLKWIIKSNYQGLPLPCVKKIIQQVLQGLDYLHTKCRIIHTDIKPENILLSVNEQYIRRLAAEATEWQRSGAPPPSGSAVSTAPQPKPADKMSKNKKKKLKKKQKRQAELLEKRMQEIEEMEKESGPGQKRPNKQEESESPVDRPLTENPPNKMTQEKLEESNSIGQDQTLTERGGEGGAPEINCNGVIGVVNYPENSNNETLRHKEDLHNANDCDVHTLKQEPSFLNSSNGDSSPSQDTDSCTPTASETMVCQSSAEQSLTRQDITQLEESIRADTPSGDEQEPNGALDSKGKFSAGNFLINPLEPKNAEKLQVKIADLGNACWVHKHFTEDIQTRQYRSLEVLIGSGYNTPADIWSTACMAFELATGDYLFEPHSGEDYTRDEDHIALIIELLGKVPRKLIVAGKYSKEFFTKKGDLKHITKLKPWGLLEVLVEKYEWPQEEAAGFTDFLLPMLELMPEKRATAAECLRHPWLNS

## CCc1cc2c(cc1-c1cccc(S(=O)(=O)F)c1)C(C)(C)c1[nH]c3cc(C#N)ccc3c1C2=O [SRPKIN-1]
SRPK1
  inhibition of SRPK1 in vivo (ability of immunoprecipitates to phosphorylate RNF12): potently inhibited
[1]
  Foxp1 exon 16b-exon 16 inclusion: little effect
[2]
  phosphorylation of SRSF4: only slightly inhibited
  phosphorylation of SRSF6/11, SRSF5/7/10: not significantly altered
SRPK2 [3]
  inhibition of SRPK2 in vivo (ability of immunoprecipitates to phosphorylate RNF12): potently inhibited
SRPK2 [4]
  inhibition of SRPK2: potently inhibited
